Measurements published in patent US11124499B2, “Pharmaceutical composition derived from Tecoma plant and a method for treating cancer” (National Guard Health Affairs, priority 2018, dated 2021).

Legend:
U937 = test: MTT cytotoxicity, U937; format: cell-based; conditions: U-937, U937, human histiocytic lymphoma, 12 h exposure, mean±SD of three trials
Procedure: (§1) The cytotoxicity of Tecomaphorbide was tested against various cultured cell lines. Cells were exposed to various concentrations of Tecomaphorbide (ranging from 0.0 to 4.0 μM) for 12 h. Subsequently, the exposed cells were incubated with MTT reagent for 4 h and the developed color was analyzed spectrophotometrically. IC50 was determined from the sigmoidal curve of blotting percentage of cell viability versus the logarithm of concentration in μM using Graphpad Prism 6 program. The determined values summarized in Table 2 are the mean±SD value obtained from three independent trials.

Jurkat = test: MTT cytotoxicity, Jurkat; format: cell-based; conditions: human acute T cell leukemia, 12 h exposure, mean±SD of three trials
Procedure: as §1

Caco-2 = test: MTT cytotoxicity, Caco-2; format: cell-based; conditions: Caco-2, human colorectal adenocarcinoma, 12 h exposure, mean±SD of three trials
Procedure: as §1

MOLM-13 = test: MTT cytotoxicity, MOLM-13; format: cell-based; conditions: MOLM-13, human acute monocytic leukemia, 12 h exposure, mean±SD of three trials
Procedure: as §1

PC-3 = test: MTT cytotoxicity, PC-3; format: cell-based; conditions: PC-3, human prostate adenocarcinoma, 12 h exposure, mean±SD of three trials
Procedure: as §1

HL-60 = test: MTT cytotoxicity, HL-60; format: cell-based; conditions: HL-60, human acute promyelocytic leukemia, 12 h exposure, mean±SD of three trials
Procedure: as §1

MV4-11 = test: MTT cytotoxicity, MV4-11; format: cell-based; conditions: MV4-11, human B myelomonocytic leukemia, 12 h exposure, mean±SD of three trials
Procedure: as §1

[1] = system: T-Cell Acute lymphocytic leukemia cell line (Jurkat); test: Apoptosis in Jurkat cells (FIG. 2); format: cell-based, human
Excerpt: (§2) FIG. 2 is a bar graph summarizing the effect of compound Tecomaphorbide on apoptosis in human acute leukemia T-cells (Jurkat cells) and normal primary T-cells.

MCF-7 = test: MTT cytotoxicity, MCF-7; format: cell-based; conditions: MCF7, MCF-7, human breast adenocarcinoma, 12 h exposure, mean±SD of three trials
Procedure: as §1

normal primary T-cells = test: Apoptosis in normal primary T-cells (FIG. 2); format: cell-based, human
Excerpt: as §2

K562 = test: MTT cytotoxicity, K562; format: cell-based; conditions: K562, human chronic myelogenous leukemia, 12 h exposure, mean±SD of three trials
Procedure: as §1

For `C=Cc1c(C=O)c2cc3nc(c4c5[nH]c(cc6nc(cc1[nH]2)C(C)=C6CC)c(C)c5C(=O)C4C(=O)OCC)C(CCC(=O)OC)C3C` (centres unmarked) [Tecomaphorbide], which IC50 (U937) is on record?
Its IC50 is 1.38 ± 0.32 µM.

And the IC50 (Jurkat)?
Its IC50 is 1.21 ± 0.24 µM.

And the IC50 (Caco-2)?
The IC50 was 2.83 ± 0.62 µM.

And the IC50 (MOLM-13)?
The IC50 was 0.58 ± 0.17 µM.

What about the IC50 (PC-3) of the same molecule?
Its IC50 is 1.94 ± 0.35 µM.

What about the IC50 (HL-60) of the same molecule?
Its IC50 is 0.46 ± 0.11 µM.

And the IC50 (MV4-11)?
The IC50 was 0.62 ± 0.14 µM.

What about the effect on apoptosis [1] of the same molecule?
Its effect on apoptosis is “able to induce apoptosis”.

What about the IC50 (MCF-7) of the same molecule?
The IC50 was 2.66 ± 0.48 µM.

What about the effect on apoptosis (normal primary T-cells) of the same molecule?
Its effect on apoptosis is “minimal impact”.

And the IC50 (K562)?
The IC50 was 1.53 ± 0.19 µM.
